According to the NIST ThermoML archive (doi:10.1021/je101012n):

Test: mn = molality of the nth substance listed, in mol/kg
Conditions: 101 kPa, Liquid, Alternating current cell with electrodes

[Cl-].[Cl-].[Sr+2] [strontium chloride] + O
electrical conductivity [S/m]
Conditions	278.15 K	283.15 K	298.15 K	308.15 K	318.15 K	343.15 K	363.15 K
m1 = 0.000125	0.002084	0.002384	0.003331	0.003972	0.004689	0.00678	0.00842
m1 = 0.00141	0.02222	0.02538	0.03603	0.04353	0.05151	0.07369	0.09235
m1 = 0.012	0.1807	0.2072	0.2926	0.3531	0.4164	0.5927	0.7383
m1 = 0.1313	1.663	1.892	2.646	3.174	3.719	5.229	6.184
m1 = 0.3891	4.194	4.751	6.457	7.797	9.074	12.51	15.38

O=S(=O)([O-])[O-].[Cs+].[Cs+] [cesium sulfate] + O
electrical conductivity [S/m]
Conditions	278.15 K	283.15 K	298.15 K	308.15 K	318.15 K	343.15 K	363.15 K
m1 = 0.000101	0.001962	0.002237	0.003069	0.003625	0.004233	0.006348	0.0078
m1 = 0.00105	0.01932	0.02195	0.0306	0.03666	0.04304	0.06181	0.07641
m1 = 0.01021	0.1676	0.1906	0.2654	0.3173	0.3716	0.5216	0.6438
m1 = 0.1047	1.358	1.539	2.124	2.529	2.958	4.094	5.022
m1 = 0.1836	2.24	2.528	3.468	4.119	4.792	6.59	8
m1 = 0.3588	4.083	4.58	6.204	7.32	8.463	11.58	13.73
